What follows are compounds tested against Nitric oxide synthase 1 (Rattus norvegicus) (UniProt P29476) (assay: Effect on the activity of recombinant rat neuronal nitric oxide synthase as determined with radioactive L-arginine/L-citruline conversion assay). Details: concentration not given here.
Chain of Nitric oxide synthase 1 (Rattus norvegicus) (P29476 whole entry): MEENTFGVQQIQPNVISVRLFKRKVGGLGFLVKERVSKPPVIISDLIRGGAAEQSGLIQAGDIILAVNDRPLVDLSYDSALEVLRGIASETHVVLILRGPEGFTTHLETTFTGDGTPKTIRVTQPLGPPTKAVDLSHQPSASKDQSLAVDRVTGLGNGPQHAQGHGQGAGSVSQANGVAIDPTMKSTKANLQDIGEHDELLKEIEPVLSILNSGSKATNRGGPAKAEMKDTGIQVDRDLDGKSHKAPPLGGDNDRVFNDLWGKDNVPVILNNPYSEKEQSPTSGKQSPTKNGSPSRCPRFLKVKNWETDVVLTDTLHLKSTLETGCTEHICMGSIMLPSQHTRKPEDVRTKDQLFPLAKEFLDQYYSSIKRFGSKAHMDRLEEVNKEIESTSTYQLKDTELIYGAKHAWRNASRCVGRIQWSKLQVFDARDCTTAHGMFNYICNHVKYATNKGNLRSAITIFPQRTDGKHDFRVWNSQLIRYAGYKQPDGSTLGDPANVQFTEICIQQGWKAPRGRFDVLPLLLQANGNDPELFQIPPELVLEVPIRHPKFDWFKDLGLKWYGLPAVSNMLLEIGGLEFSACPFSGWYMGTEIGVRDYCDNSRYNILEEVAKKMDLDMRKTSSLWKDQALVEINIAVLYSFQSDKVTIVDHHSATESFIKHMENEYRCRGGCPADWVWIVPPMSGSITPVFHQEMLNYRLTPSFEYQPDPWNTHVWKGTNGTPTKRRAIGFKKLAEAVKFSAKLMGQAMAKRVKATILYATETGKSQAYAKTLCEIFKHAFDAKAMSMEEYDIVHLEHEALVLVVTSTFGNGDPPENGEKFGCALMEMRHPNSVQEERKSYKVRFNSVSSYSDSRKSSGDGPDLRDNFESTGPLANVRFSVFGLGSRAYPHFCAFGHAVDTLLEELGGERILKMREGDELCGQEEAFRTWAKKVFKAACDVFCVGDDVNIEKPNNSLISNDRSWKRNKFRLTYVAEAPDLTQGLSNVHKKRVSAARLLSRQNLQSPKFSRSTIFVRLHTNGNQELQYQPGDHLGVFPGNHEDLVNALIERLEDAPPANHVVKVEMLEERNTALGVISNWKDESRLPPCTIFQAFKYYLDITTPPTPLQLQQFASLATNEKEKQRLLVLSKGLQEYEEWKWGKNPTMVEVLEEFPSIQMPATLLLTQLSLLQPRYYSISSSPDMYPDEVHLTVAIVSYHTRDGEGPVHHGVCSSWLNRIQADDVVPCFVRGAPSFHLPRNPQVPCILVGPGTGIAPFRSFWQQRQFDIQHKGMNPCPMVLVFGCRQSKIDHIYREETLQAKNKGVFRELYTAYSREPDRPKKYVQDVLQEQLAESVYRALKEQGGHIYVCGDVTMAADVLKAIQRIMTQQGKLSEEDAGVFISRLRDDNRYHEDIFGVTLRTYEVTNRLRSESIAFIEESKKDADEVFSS
Design: concentration or dose not given beside the values
Compound `O=[N+]([O-])c1cccc(O)c1O` has an inhibition of 94%.
For `Cc1cc(O)c(O)cc1[N+](=O)[O-]`, the inhibition was 35%.
Work on `O=[N+]([O-])c1ccc(O)c(O)c1` yielded an inhibition of 33%.
`NCC(O)c1cc(O)c(O)cc1[N+](=O)[O-]` (stereo unspecified) was tested, and the inhibition was 78%.
With `Cc1cc([N+](=O)[O-])cc(O)c1O` the inhibition was 28%.
With `NCCc1cc(O)c(O)cc1[N+](=O)[O-]` the inhibition was 71%.

— ChEMBL document CHEMBL1135086
